Measurements published in patent US20260256931A1, “CD276 ANTIBODY AND METHODS OF USE THEREOF” (priority 2023, published 2026).
Where a SMILES comes first, the peptide text is derived from it. [ ]: non-standard residue; d: D form. Dolaproine = CO[C@@H]([C@@H]1CCCN1)[C@@H](C)C(=O)O; Dil = CC[C@H](C)[C@H](NC)[C@@H](CC(=O)O)OC; NMeV = CN[C@H](C(=O)O)C(C)C

Tests used:
Format in all cases: cell-based
MDA-MB-231 = assay: In vitro cytotoxicity assay (MTT), MDA-MB-231; conditions: Homo sapiens, MDA-MB-231, 120 h
Experimental: (§1) The human and mouse TNBC cells were seeded in 96-well plates with a density of 10,000 cells/well for MDA-MB-468, 1,000 cells/well for MDA-MB-231 and 500 cells/well for 4T1. The free MMAF, mAb-MMAF and mAb-MMAF/IMQ were added into each well to reach the final dosages of 0-300 or 400 nM. Higher concentrations, i.e. 0-20 μM, of free IMQ and mAb-IMQ, were tested. The treated cells were incubated at 37° C. and 5% CO2 for five days and the cell viability was analyzed using MTT Cell Proliferation Assay kit.

MDA-MB-468 = assay: In vitro cytotoxicity assay (MTT), MDA-MB-468; conditions: Homo sapiens, 120 h, MDA-MB-468, five days
Experimental: as §1

4T1 = assay: In vitro cytotoxicity assay (MTT), 4T1; conditions: Mus musculus, 4T1, 120 h
Experimental: as §1

`CC[C@H](C)[C@@H]([C@@H](CC(=O)N1CCC[C@H]1[C@H](OC)[C@@H](C)C(=O)N[C@@H](Cc1ccccc1)C(=O)O)OC)N(C)C(=O)[C@@H](NC(=O)[C@@H](NC)C(C)C)C(C)C` [MMAF, Monomethyl auristatin F] (H-[NMeV]V[Dil][Dolaproine]F-OH) was tested. Which IC50 (MDA-MB-231) did it give?
Its IC50 is 151 nM.

And the IC50 (MDA-MB-468)?
Its IC50 is 143 nM.

What about the IC50 (4T1) of the same compound?
Its IC50 is 104 nM.
